According to US6218384A, “3-Oxo-pyrido(1,2-a)benzimidazole-4-carboxyl and 4-oxo-azepino(1,2-a)benzimidazole-5-carboxyl derivatives useful in treating central nervous system disorders” (Ortho-McNeil Pharmaceutical, Inc., priority 1997, dated 2001):

How the values were obtained:
[1] = Horizontal Screen Test for Determining Benzodiazepine Antagonism; assay type: in vivo, male CD1 mice; settings: mice; given parenterally with chlordiazepoxide (28 mg/kg, sc); values above 0 considered active
Protocol: Some of the compounds of the invention were tested for their ability to antagonize the locomotor discoordinating property of chlordiazepoxide. Male CD1 mice, fasted for at least 16 hours but allowed access to water except during the period of observation, were placed on a horizontally-held screen (mesh size 1/4", wire diameter approximately 1.0 mm). The screen was inverted and mice which successfully climb to the top side of the screen within one minute were selected for testing. Selected mice were weighed and divided into equal groups. Test compounds or vehicle were administered to those mice parenterally at the same time as chlordrazepoxide (28 mg/kg, sc). At a pre-determined interval (or intervals) after administration, the animals were tested for their ability to climb to the top side of the inverted screen (pass the test). Activity is reported as the percent antagonism of the number of animals that fail the test in each treatment group relative to the corresponding chlordiazepoxide-treated group. Percent Antagonism =100×[(Percent Fail in Chlordiazepoxide Group)-(Percent Fail in Test Group)/Percent Fail in Chlordiazepoxide Group]. […] The percent antagonism values for the compounds of the present invention that were tested are as follows: CP 113=0, CP 53=0, CP 59=0,CP 102=0,[…],CP 7=17,CP 8=17,CP 9=30,CP 10=30, CP 11=92, CP 12=92, CP 13=100. Compounds having values above 0 were considered active as agents for treating drug overdoses, particularly overdoses of benzodiazepine.

[2] = target: benzodiazepine site of the GABA-A receptor; test: Benzodiazepine Receptor Binding Assay (inhibition of 3H-flunitrazepam binding); settings: ca. 3 nM 3H-flunitrazepam
[3] = Suppression of metrazol-induced convulsions; assay type: in vivo, male CD1 mice; settings: mice; for ED50: Mus musculus, 0.5 h, Table 5, parenteral, clonic convulsions, read-out: Antimetrazol ED50; for Metrazol (ip) ED50: Table 1, clonic convulsions after sc CD90 metrazol, >30 = active dose not determined, 30 min
[4] = Suppression of anxiety (punished licking, conflict test) in the adult male rat; assay type: in vivo, male rats; settings: for minimal effective dose: Table 5, minimum effective dose, read-out: Conflict MED; for Conflict (ip) MED: Table 1, ip, minimum effective dose, >10 = active dose not determined
Outline: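 Rats were deprived of water for 48 h and food for 24 h, with unpunished training the day before. Testing began at expected peak drug activity: 3-min session, every 20th lick punished by a 0.2-s shock.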

[5] = Table 1, 25° C., 10-20 min, >10,000 = not active

Molecule | percent antagonism [1] [%] | IC50 [2, 5] [nM] | Metrazol (ip) ED50 [3] [mg/kg] | Conflict (ip) MED [4] [mg/kg] | further results
O=C(NC1CCCCC1)C1=C(O)CCn2c1nc1ccccc12 [CP 7, N-Cyclohexyl-1,2-dihydro-3-hydroxy-pyrido(1,2-a)benzimidazole-4-carboxamide] | 17 |  |  |  | 
COc1ccc(NC(=O)C2=C(O)CCn3c2nc2ccccc23)cc1OC [CP 8, 1,2-Dihydro-N-(3,4-dimethoxyphenyl)-3-hydroxy-pyrido(1,2-a)benzimidazole-4-carboxamide] | 17 |  |  |  | 
O=C1CCN2C(=C1C(=O)Nc1ccc([N+](=O)[O-])cc1)Nc1ccccc12 [CP 9] | 30 |  |  |  | 
O=C(Nc1ccc(O)cc1)C1=C(O)CCn2c1nc1ccccc12 [CP 10, 1,2-Dihydro-3-hydroxy-N-(4-hydroxyphenyl)pyrido(1,2-a)benzimidazole-4-carboxamide] | 30 |  |  |  | 
COc1ccc2c(c1)nc1n2CCC(O)=C1C(=O)Nc1ccccc1 [CP 12, 1,2-Dihydro-3-hydroxy-7-methoxy-N-(phenyl)pyrido(1,2-a)benzimidazole-4-carboxamide] | 92 |  |  |  | 
COc1ccc(NC(=O)C2=C(O)CCn3c2nc2cc(OC)ccc23)cc1 [CP 13, 1,2-Dihydro-3-hydroxy-7-methoxy-N-(4-methoxyphenyl)pyrido(1,2-a)benzimidazole-4-carboxamide] | 100 |  |  |  | 
O=C1CCN2C(=C1C(=O)Nc1ncncn1)Nc1ccccc12 [CP 53] | 0 |  |  |  | 
O=C(NCc1ccncc1)C1=C(O)CCn2c1nc1ccccc12 [CP 59, 1,2-Dihydro-3-hydroxy-N-(4-pyridylmethyl)pyrido(1,2-a)benzimidazole-4-carboxamide] | 0 |  |  |  | 
CNC(=O)C1=C(O)CCn2c1nc1ccccc12 [CP 102, 1,2-Dihydro-3-hydroxy-N-methyl-pyrido(1,2-a)benzimidazole-4-carboxamide] | 0 |  |  |  | 
O=C(Nc1ccccc1F)C1=C(O)CCn2c1nc1cc(Cl)ccc12 [CP 113, 7-Chloro-1,2-dihydro-3-hydroxy-N-(2-fluorophenyl)-pyrido(1,2-a)benzimidazole-4-carboxamide] | 0 |  |  |  | 
O=C1CCCN2C(=C1C(=O)Nc1ccc(F)cc1F)Nc1ccccc12 [compound 155] |  |  |  |  | IC50 ([2]; Table 5): 39 nM; ED50 [3]: 10 mg/kg; minimal effective dose [4]: > 10 mg/kg
O=C1CCCN2C(=C1C(=O)Nc1ccc(F)cc1F)N(Cc1ccccc1)c1ccccc12 [compound 156] |  |  |  |  | IC50 ([2]; Table 5): 330 nM; ED50 [3]: > 10 mg/kg; minimal effective dose [4]: > 10 mg/kg
CN1C2=C(C(=O)Nc3c(F)cc(F)cc3F)C(=O)CCCN2c2ccccc21 [compound 157] |  |  |  |  | IC50 ([2]; Table 5): 53 nM; ED50 [3]: > 10 mg/kg; minimal effective dose [4]: > 10 mg/kg
N-(2,4-Difluorophenyl)-4-oxo-1,2,3,4-tetrahydro-6H-azepino(1,2-a)benzimidazol-5-carboxamide [CP 155] |  | 210 | 10 to 30 | > 10 | 
N-(2,6-Difluorophenyl)-3-hydroxypyrido(1,2-a)benzimidazole-4-carboxamide [CP 141] |  | 140 | 10 | 10 | 
N-(2-Fluorophenyl)-6-methyl-4-oxo-1,2,3,4-tetrahydro-6H-azepino(1,2-a)benzimidazol-5-carboxamide [CP 147] |  | 51 | 5 | 10 | 
N-(4-Pyridyl)-1,2-dihydro-3-hydroxypyrido-(1,2-a)benzimidazole-4-carboxamide [CP 35] |  | 9.1 | 3 | 10 | 
Phenyl-1,2-dihydro-3-hydroxypyrido(1,2-a)benzimidazole-4-carboxthiolate [CP 119] |  | 43 | 30 | 10 | 
Phenyl-1,2-dihydro-3-hydroxypyrido(1,2-a)benzimidazole-4-carboxylate [CP 118] |  | 41 | 3 | 10 | 
